Several values for one entry are separate records, joined by “and”; a condition that tells them apart may be missing. Identical values can stand only once. Marks after values point to notes of the source that are not given here.
Experiments:
[1] = biological target: T1, hCB1 (Homo sapiens, UniProt P21554); test: Lance Ultra cAMP accumulation assay, CHO cells; type: cell-based; design: expressed in transfected cells;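 note: human CB1R stably expressed in CHO cells, ligands co-incubated with forskolin at room temperature, read-out is lowering of forskolin-stimulated cAMP accumulation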
[2] = biological target: T1, hCB1; test: bioSensAll ebBRET signaling profiling, hCB1; type: cell-based; design: host or cells: HEK293SL cells, transient PEI transfection

T1 sequence (P21554 whole entry): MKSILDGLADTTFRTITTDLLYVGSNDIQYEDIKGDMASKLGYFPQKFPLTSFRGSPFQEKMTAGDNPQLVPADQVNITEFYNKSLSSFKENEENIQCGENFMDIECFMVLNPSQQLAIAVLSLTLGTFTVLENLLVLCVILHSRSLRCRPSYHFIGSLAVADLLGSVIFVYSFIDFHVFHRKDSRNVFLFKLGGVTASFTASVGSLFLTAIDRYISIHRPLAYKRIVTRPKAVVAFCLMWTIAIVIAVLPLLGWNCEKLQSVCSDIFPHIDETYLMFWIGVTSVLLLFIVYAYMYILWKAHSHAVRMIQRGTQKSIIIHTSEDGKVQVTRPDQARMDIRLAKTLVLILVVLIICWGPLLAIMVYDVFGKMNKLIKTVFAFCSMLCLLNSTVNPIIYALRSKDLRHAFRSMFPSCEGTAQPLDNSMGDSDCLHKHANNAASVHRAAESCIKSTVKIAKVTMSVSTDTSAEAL

In the case of `COC(=O)C(C)(NC(=O)c1cc(C)n(-c2cccc(C(F)(F)F)c2)n1)c1cccs1` (stereo not shown) [‘4042], the EC50 [1] is reported as 3.3 nM, the “Lance Ultra cAMP pEC50” value [1] is reported as 8.5 [8.3 – 8.7] and the Emax ([1]; CHO) is reported as 78%. The “Barr2+GRK2 hCB1” value ([2]; Log [Compound] (M) -4.22186) was 92.62* and 120.7*, the “G13 hCB1” value ([2]; Log [Compound] (M) -4.22186) was 70.6599 and the “G15 hCB1” value ([2]; Log [Compound] (M) -4.22186) was 109.73 and 102.131. The “Gi1 hCB1” value ([2]; Log [Compound] (M) -4.22186) was 104.966 and 104.552 and 101.354, the “Gi2 hCB1” value ([2]; Log [Compound] (M) -4.22186) was 114.417 and 105.522 and the “GoB hCB1” value ([2]; Log [Compound] (M) -4.22186) was 107.662 and 102.746 and 100.082. The “Gq hCB1” value ([2]; Log [Compound] (M) -4.22186) was 1205, the “Gs hCB1” value ([2]; Log [Compound] (M) -4.22186) was 6574 and the “Barr2+GRK2 hCB1” value ([2]; Log [Compound] (M) -4.63927) was 82.3587 and 72.7006. For the same molecule, the “G13 hCB1” value ([2]; Log [Compound] (M) -4.63927) was 46.7858 and 87.1754, the “G15 hCB1” value ([2]; Log [Compound] (M) -4.63927) was 108.775 and 92.8459 and the “Gi1 hCB1” value ([2]; Log [Compound] (M) -4.63927) was 101.502 and 110.826 and 98.3137. The “Gi2 hCB1” value ([2]; Log [Compound] (M) -4.63927) was 122.075 and 85.154, the “GoB hCB1” value ([2]; Log [Compound] (M) -4.63927) was 110.056 and 106.901 and 98.7991 and the “Gq hCB1” value ([2]; Log [Compound] (M) -4.63927) was 1175. For the same molecule, the “Gs hCB1” value ([2]; Log [Compound] (M) -4.63927) was 6296, the “Gz hCB1” value ([2]; Log [Compound] (M) -4.63927) was 112.813 and 91.1447 and the “Barr2+GRK2 hCB1” value ([2]; Log [Compound] (M) -5.05788) was 70.2312 and 47.6394. The “G15 hCB1” value ([2]; Log [Compound] (M) -5.05788) was 113.05 and 88.4535, the “Gi1 hCB1” value ([2]; Log [Compound] (M) -5.05788) was 105.528 and 109.408 and 94.1617 and the “Gi2 hCB1” value ([2]; Log [Compound] (M) -5.05788) was 116.649 and 83.6719. The “GoB hCB1” value ([2]; Log [Compound] (M) -5.05788) was 115.498 and 117.852 and 92.0047, the “Gq hCB1” value ([2]; Log [Compound] (M) -5.05788) was 1109 and the “Gs hCB1” value ([2]; Log [Compound] (M) -5.05788) was 6591. For the same molecule, the “Gz hCB1” value ([2]; Log [Compound] (M) -5.05788) was 89.4695 and 99.3467, the “G13 hCB1” value ([2]; Log [Compound] (M) -5.47381) was 42.3393 and 80.0269 and the “G15 hCB1” value ([2]; Log [Compound] (M) -5.47381) was 106.626 and 91.4256. For the same molecule, the “Gi1 hCB1” value ([2]; Log [Compound] (M) -5.47381) was 102.594 and 101.052 and 96.5342, the “Gi2 hCB1” value ([2]; Log [Compound] (M) -5.47381) was 113.717 and 80.6941 and the “GoB hCB1” value ([2]; Log [Compound] (M) -5.47381) was 111.936 and 119.903 and 88.1947. The “Gq hCB1” value ([2]; Log [Compound] (M) -5.47381) was 1096, the “Gs hCB1” value ([2]; Log [Compound] (M) -5.47381) was 6432 and the “Gz hCB1” value ([2]; Log [Compound] (M) -5.47381) was 99.3173 and 98.4249. The “Barr2+GRK2 hCB1” value ([2]; Log [Compound] (M) -5.89285) was 78.4199 and 57.3671, the “G15 hCB1” value ([2]; Log [Compound] (M) -5.89285) was 110.351 and 94.8449 and the “Gi1 hCB1” value ([2]; Log [Compound] (M) -5.89285) was 96.0236 and 103.056 and 95.3776. For the same molecule, the “Gi2 hCB1” value ([2]; Log [Compound] (M) -5.89285) was 120.967 and 77.6348, the “GoB hCB1” value ([2]; Log [Compound] (M) -5.89285) was 107.616 and 111.235 and 93.9859 and the “Gq hCB1” value ([2]; Log [Compound] (M) -5.89285) was 1179. The “Gs hCB1” value ([2]; Log [Compound] (M) -5.89285) was 6305, the “Gz hCB1” value ([2]; Log [Compound] (M) -5.89285) was 104.129 and 105.45 and 96.7384 and the “Barr2+GRK2 hCB1” value ([2]; Log [Compound] (M) -6.31878) was 80.7003 and 54.8939. The “G15 hCB1” value ([2]; Log [Compound] (M) -6.31878) was 115.7 and 96.7912, the “Gi1 hCB1” value ([2]; Log [Compound] (M) -6.31878) was 96.367 and 108.992 and 101.754 and the “Gi2 hCB1” value ([2]; Log [Compound] (M) -6.31878) was 121.929 and 79.8783. The “GoB hCB1” value ([2]; Log [Compound] (M) -6.31878) was 95.5518 and 109.274 and 88.1947, the “Gq hCB1” value ([2]; Log [Compound] (M) -6.31878) was 1143 and the “Gs hCB1” value ([2]; Log [Compound] (M) -6.31878) was 6312. The “Gz hCB1” value ([2]; Log [Compound] (M) -6.31878) was 91.7649 and 96.1616 and 90.8724, the “Barr2+GRK2 hCB1” value ([2]; Log [Compound] (M) -6.72585) was 68.6764 and 46.9799 and the “G15 hCB1” value ([2]; Log [Compound] (M) -6.72585) was 112.142 and 94.2925. For the same molecule, the “Gi1 hCB1” value ([2]; Log [Compound] (M) -6.72585) was 106.09 and 92.9585 and 96.5936, the “Gi2 hCB1” value ([2]; Log [Compound] (M) -6.72585) was 109.48 and 81.9179 and the “GoB hCB1” value ([2]; Log [Compound] (M) -6.72585) was 86.2761 and 114.112 and 87.3057. The “Gq hCB1” value ([2]; Log [Compound] (M) -6.72585) was 1077, the “Gs hCB1” value ([2]; Log [Compound] (M) -6.72585) was 6405 and the “Gz hCB1” value ([2]; Log [Compound] (M) -6.72585) was 96.9343 and 94.4158 and 89.6782. The “Barr2+GRK2 hCB1” value ([2]; Log [Compound] (M) -7.14267) was 59.7621 and 50.2774, the “G15 hCB1” value ([2]; Log [Compound] (M) -7.14267) was 114.268 and 99.1321 and the “Gi1 hCB1” value ([2]; Log [Compound] (M) -7.14267) was 107.604 and 101.422 and 97.765. For the same molecule, the “Gi2 hCB1” value ([2]; Log [Compound] (M) -7.14267) was 109.219 and 83.8759, the “GoB hCB1” value ([2]; Log [Compound] (M) -7.14267) was 86.7157 and 119.974 and 89.2869 and the “Gq hCB1” value ([2]; Log [Compound] (M) -7.14267) was 1043. For the same molecule, the “Gs hCB1” value ([2]; Log [Compound] (M) -7.14267) was 7002, the “Gz hCB1” value ([2]; Log [Compound] (M) -7.14267) was 98.2797 and 100.101 and 88.7145 and the “Barr2+GRK2 hCB1” value ([2]; Log [Compound] (M) -7.55284) was 52.5063 and 42.0336. For the same molecule, the “G15 hCB1” value ([2]; Log [Compound] (M) -7.55284) was 113.933 and 98.6587, the “Gi1 hCB1” value ([2]; Log [Compound] (M) -7.55284) was 97.1473 and 109.377 and 98.1802 and the “Gi2 hCB1” value ([2]; Log [Compound] (M) -7.55284) was 110.556 and 82.2578. For the same molecule, the “GoB hCB1” value ([2]; Log [Compound] (M) -7.55284) was 88.4435 and 120.01 and 87.3057, the “Gq hCB1” value ([2]; Log [Compound] (M) -7.55284) was 1071 and the “Gs hCB1” value ([2]; Log [Compound] (M) -7.55284) was 6586. For the same molecule, the “Gz hCB1” value ([2]; Log [Compound] (M) -7.55284) was 92.0765 and 86.4032 and 85.0169, the “Barr2+GRK2 hCB1” value ([2]; Log [Compound] (M) -8) was 45.4579 and 41.3741 and the “G15 hCB1” value ([2]; Log [Compound] (M) -8) was 112.381 and 101.184. The “Gi1 hCB1” value ([2]; Log [Compound] (M) -8) was 95.7115 and 104.367 and 92.5898, the “Gi2 hCB1” value ([2]; Log [Compound] (M) -8) was 103.223 and 88.1181 and the “GoB hCB1” value ([2]; Log [Compound] (M) -8) was 98.6892 and 112.511 and 89.2869. The “Gq hCB1” value ([2]; Log [Compound] (M) -8) was 1060.

Source: paper PMC11882969 (Nature Communications, 2025)
